Experimental data as given in PMC11855478, “Bicyclic N,S-Acetals Containing Fused Cysteine-Amide System as New Heterocyclic Class Targeting Human Farnesyltransferase (FTase-h)” (International Journal of Molecular Sciences, 2025).

Key:
[1] = system: panel of 60 human cancer cell lines; assay: NCI 60 cell panel one dose screen (whole panel); format: cell-based; set-up: Delta (One Dose Mean Graph): unit not given here; conditions: 1.00E-5 Molar one dose; for Range (One Dose Mean Graph): in % (unit assumed); for Mean Growth Percent: mean over tested cell lines
Procedure, shortened: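 Single-dose screen at 10 µM across the NCI 60 human cancer cell line panel; 48 h compound exposure with growth measured by sulforhodamine B assay.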

CCRF-CEM (Leukemia) = assay: NCI one dose, CCRF-CEM; format: cell-based, human; conditions: 1.00E-5 Molar one dose
Procedure, shortened: (§1)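 Compounds were screened in the NCI 60-cell-line human cancer panel with a 48 h exposure; cytotoxicity was read by sulforhodamine B staining.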

K-562 leukaemia cells = assay: NCI one dose, K-562; format: cell-based, human; conditions: for Growth Percent: K-562, 1.00E-5 Molar one dose
Procedure, shortened: as §1

RPMI-8226 (Leukemia) = assay: NCI one dose, RPMI-8226; format: cell-based, human; conditions: RPMI-8226, 1.00E-5 Molar one dose
Procedure, shortened: as §1

[2] = system: EKVX (Non-Small Cell Lung Cancer); assay: NCI one dose, EKVX; format: cell-based, human; conditions: 1.00E-5 Molar one dose
Procedure, shortened: as §1

[3] = system: NCI-H23 (Non-Small Cell Lung Cancer); assay: NCI one dose, NCI-H23; format: cell-based, human; conditions: NCI-H23, 1.00E-5 Molar one dose
Procedure, shortened: as §1

[4] = system: NCI-H322M (Non-Small Cell Lung Cancer); assay: NCI one dose, NCI-H322M; format: cell-based, human; conditions: 1.00E-5 Molar one dose
Procedure, shortened: as §1

COLO 205 (Colon Cancer) = assay: NCI one dose, COLO 205; format: cell-based, human; conditions: COLO 205, 1.00E-5 Molar one dose
Description: (§2) 3.4. Cell Proliferation Assay
(§3) Selected compounds were tested on a panel of 60 human cancer cell lines at the National Cancer Institute (NCI), Germantown, MD, USA. The cytotoxicity studies were conducted using a 48 h exposure protocol using the sulfo-rhodamine B assay.

HCC-2998 (Colon Cancer) = assay: NCI one dose, HCC-2998; format: cell-based, human; conditions: HCC-2998, 1.00E-5 Molar one dose
Procedure, shortened: as §1

KM12 (Colon Cancer) = assay: NCI one dose, KM12; format: cell-based, human; conditions: KM12, 1.00E-5 Molar one dose
Procedure, shortened: as §1

SF-268 (CNS Cancer) = assay: NCI one dose, SF-268; format: cell-based, human; conditions: SF-268, 1.00E-5 Molar one dose
Procedure, shortened: as §1

SF-295 (CNS Cancer) = assay: NCI one dose, SF-295; format: cell-based, human; conditions: SF-295, 1.00E-5 Molar one dose
Procedure, shortened: (§4)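 NCI60 human tumour panel; 48 h drug exposure; SRB read-out.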

SF-539 (CNS Cancer) = assay: NCI one dose, SF-539; format: cell-based, human; conditions: SF-539, 1.00E-5 Molar one dose
Procedure, shortened: as §1

SNB-19 (CNS Cancer) = assay: NCI one dose, SNB-19; format: cell-based, human; conditions: SNB-19, 1.00E-5 Molar one dose
Procedure, shortened: as §1

U251 (CNS Cancer) = assay: NCI one dose, U251; format: cell-based, human; conditions: U251, 1.00E-5 Molar one dose
Procedure, shortened: as §1

LOX IMVI (Melanoma) = assay: NCI one dose, LOX IMVI; format: cell-based, human; conditions: 1.00E-5 Molar one dose
Procedure, shortened: as §1

MALME-3M (Melanoma) = assay: NCI one dose, MALME-3M; format: cell-based, human; conditions: 1.00E-5 Molar one dose
Procedure, shortened: as §4

SK-MEL-2 (Melanoma) = assay: NCI one dose, SK-MEL-2; format: cell-based, human; conditions: SK-MEL-2, 1.00E-5 Molar one dose
Procedure, shortened: as §1

UACC-257 melanoma cells = assay: NCI one dose, UACC-257; format: cell-based, human; conditions: for Growth Percent: UACC-257, 1.00E-5 Molar one dose
Procedure, shortened: as §1

UACC-62 (Melanoma) = assay: NCI one dose, UACC-62; format: cell-based, human; conditions: UACC-62, 1.00E-5 Molar one dose
Procedure, shortened: as §1

IGROV1 (Ovarian Cancer) = assay: NCI one dose, IGROV1; format: cell-based, human; conditions: IGROV1, 1.00E-5 Molar one dose
Procedure, shortened: as §1

OVCAR-3 (Ovarian Cancer) = assay: NCI one dose, OVCAR-3; format: cell-based, human; conditions: OVCAR-3, 1.00E-5 Molar one dose
Procedure, shortened: as §1

OVCAR-4 (Ovarian Cancer) = assay: NCI one dose, OVCAR-4; format: cell-based, human; conditions: OVCAR-4, 1.00E-5 Molar one dose
Procedure, shortened: as §1

OVCAR-5 (Ovarian Cancer) = assay: NCI one dose, OVCAR-5; format: cell-based, human; conditions: OVCAR-5, 1.00E-5 Molar one dose
Procedure, shortened: as §1

SK-OV-3 (Ovarian Cancer) = assay: NCI one dose, SK-OV-3; format: cell-based, human; conditions: SK-OV-3, 1.00E-5 Molar one dose
Procedure, shortened: as §1

A498 (Renal Cancer) = assay: NCI one dose, A498; format: cell-based, human; conditions: A498, 1.00E-5 Molar one dose
Procedure, shortened: as §1

ACHN (Renal Cancer) = assay: NCI one dose, ACHN; format: cell-based, human; conditions: 1.00E-5 Molar one dose
Procedure, shortened: as §4

CAKI-1 (Renal Cancer) = assay: NCI one dose, CAKI-1; format: cell-based, human; conditions: CAKI-1, 1.00E-5 Molar one dose
Procedure, shortened: as §1

RXF 393 (Renal Cancer) = assay: NCI one dose, RXF 393; format: cell-based, human; conditions: RXF 393, 1.00E-5 Molar one dose
Procedure, shortened: as §1

SN12C (Renal Cancer) = assay: NCI one dose, SN12C; format: cell-based, human; conditions: 1.00E-5 Molar one dose
Procedure, shortened: as §1

HS 578T (Breast Cancer) = assay: NCI one dose, HS 578T; format: cell-based, human; conditions: 1.00E-5 Molar one dose
Procedure, shortened: as §1

BT-549 (Breast Cancer) = assay: NCI one dose, BT-549; format: cell-based, human; conditions: BT-549, 1.00E-5 Molar one dose
Procedure, shortened: as §1

T-47D (Breast Cancer) = assay: NCI one dose, T-47D; format: cell-based, human; conditions: 1.00E-5 Molar one dose
Description: as §2, §3

| SMILES | Delta (One Dose Mean Graph) [1] | Range (One Dose Mean Graph) [1] | Mean Growth Percent [1] [%] | Growth Percent (CCRF-CEM (Leukemia)) [%] | Growth Percent (K-562 leukaemia cells) [%] | Growth Percent (RPMI-8226 (Leukemia)) [%] | Growth Percent [2] [%] | Growth Percent [3] [%] | Growth Percent [4] [%] | Growth Percent (COLO 205 (Colon Cancer)) [%] | Growth Percent (HCC-2998 (Colon Cancer)) [%] | Growth Percent (KM12 (Colon Cancer)) [%] | Growth Percent (SF-268 (CNS Cancer)) [%] | Growth Percent (SF-295 (CNS Cancer)) [%] | Growth Percent (SF-539 (CNS Cancer)) [%] | Growth Percent (SNB-19 (CNS Cancer)) [%] | Growth Percent (U251 (CNS Cancer)) [%] | Growth Percent (LOX IMVI (Melanoma)) [%] | Growth Percent (MALME-3M (Melanoma)) [%] | Growth Percent (SK-MEL-2 (Melanoma)) [%] | also measured |
| --- | --- | --- | --- | --- | --- | --- | --- | --- | --- | --- | --- | --- | --- | --- | --- | --- | --- | --- | --- | --- | --- |
| C[C@@]12SC[C@@H](C(=O)NCc3ccccc3Br)N1C(=O)c1ccccc12 [4bB] | 17.49 | 36.16 | 93.03 | 88.50 | 80.28 | 91.24 | 106.14 | 91.89 | 99.70 | 111.70 | 97.16 | 100.14 | 96.91 | 92.26 | 90.78 | 100.80 | 91.25 | 97.04 | 97.54 | 85.75 | Growth Percent (UACC-257 melanoma cells): 75.54%; Growth Percent (UACC-62 (Melanoma)): 82.12%; Growth Percent (IGROV1 (Ovarian Cancer)): 97.21%; Growth Percent (OVCAR-3 (Ovarian Cancer)): 111.49%; Growth Percent (OVCAR-4 (Ovarian Cancer)): 80.04%; Growth Percent (OVCAR-5 (Ovarian Cancer)): 93.99%; Growth Percent (SK-OV-3 (Ovarian Cancer)): 88.35%; Growth Percent (A498 (Renal Cancer)): 75.85%; Growth Percent (ACHN (Renal Cancer)): 106.88%; Growth Percent (CAKI-1 (Renal Cancer)): 79.18%; Growth Percent (RXF 393 (Renal Cancer)): 96.88%; Growth Percent (SN12C (Renal Cancer)): 89.32%; Growth Percent (HS 578T (Breast Cancer)): 91.10%; Growth Percent (BT-549 (Breast Cancer)): 107.51%; Growth Percent (T-47D (Breast Cancer)): 83.93% |
| COc1ccc(CNC(=O)[C@@H]2CS[C@@]3(C)c4ccccc4C(=O)N23)cc1OC [4bI] | 38.86 | 57.76 | 93.56 | 81.76 | 66.10 | 81.37 | 107.62 | 82.91 | 96.18 | 107.68 | 96.29 | 102.81 | 99.31 | 102.29 | 99.30 | 96.85 | 93.58 | 100.38 | 106.59 | 79.40 | inhibition at 10 µM (K-562 leukaemia cells; Homo sapiens, K562, 10 µM single dose, read-out: inhibition of growth of K-562 leukaemia cells): 34%; inhibition at 10 µM (UACC-257 melanoma cells; Homo sapiens, UACC-257, 10 µM single dose, read-out: inhibition of growth of UACC-257 melanoma cells): 27%; Growth Percent (UACC-257 melanoma cells): 73.35%; Growth Percent (UACC-62 (Melanoma)): 79.36%; Growth Percent (IGROV1 (Ovarian Cancer)): 104.59%; Growth Percent (OVCAR-3 (Ovarian Cancer)): 110.84%; Growth Percent (OVCAR-4 (Ovarian Cancer)): 91.78%; Growth Percent (OVCAR-5 (Ovarian Cancer)): 111.28%; Growth Percent (SK-OV-3 (Ovarian Cancer)): 103.22%; Growth Percent (A498 (Renal Cancer)): 83.43%; Growth Percent (ACHN (Renal Cancer)): 96.90%; Growth Percent (CAKI-1 (Renal Cancer)): 89.36%; Growth Percent (RXF 393 (Renal Cancer)): 104.59%; Growth Percent (SN12C (Renal Cancer)): 96.04%; Growth Percent (HS 578T (Breast Cancer)): 94.35%; Growth Percent (BT-549 (Breast Cancer)): 110.79%; Growth Percent (T-47D (Breast Cancer)): 71.47% |
